Structures can show the parent of a compound that is named as a salt.
Experiments:
[1] = physchem
[2] = Fraction unbound in human; format: ADME, organism-based; conditions: in vivo
[3] = Systemic clearance in human; format: ADME, organism-based; conditions: in vivo
[4] = Clearance in iv dosed patient with renal impairment; format: ADME, organism-based; conditions: human, in vivo
[5] = clinical; conditions: human, in vivo, po
[6] = Fraction unbound in human at 120 mg, po; format: ADME, organism-based; conditions: in vivo
[7] = Systemic clearance in human at 120 mg, po; format: ADME, organism-based; conditions: in vivo
[8] = system: Homo sapiens; experiment: Unbound hepatobiliary clearance in human at 120 mg, po; format: ADME, organism-based; conditions: in vivo
[9] = clinical; conditions: human, in vivo, iv
[10] = species on record: Homo sapiens; conditions: in vivo
[11] = species on record: Homo sapiens; conditions: in vivo; remark: listed apart in the source
[12] = Fraction unbound in healthy human at 10 mg, iv bolus dose and 25, 50 and 100 mg, po; format: ADME, organism-based; conditions: in vivo
[13] = Systemic clearance in psychiatric patient treated with clozapine; format: ADME, organism-based; conditions: human, in vivo
[14] = Fraction unbound in psychiatric patient treated with clozapine; format: ADME, organism-based; conditions: human, in vivo
[15] = species on record: Homo sapiens; experiment: Unbound renal clearance in psychiatric patient treated with clozapine; format: ADME, organism-based, Kidney; conditions: in vivo
[16] = species on record: Homo sapiens; experiment: Unbound hepatobiliary clearance in psychiatric patient treated with clozapine; format: ADME, organism-based; conditions: in vivo
[17] = system: Homo sapiens; experiment: Unbound hepatobiliary clearance in human treated with dilitiazem at 120 mg, po; format: ADME, organism-based; conditions: in vivo
[18] = system: Homo sapiens; experiment: Unbound renal clearance in human at 4 mg, po twice daily for 8 days; format: ADME, organism-based, Kidney; conditions: in vivo, 192 h
[19] = Systemic clearance in human at 4 mg, po twice daily for 8 days; format: ADME, organism-based; conditions: in vivo
[20] = system: Homo sapiens; experiment: Unbound hepatobiliary clearance in human at 4 mg, po twice daily for 8 days; format: ADME, organism-based; conditions: in vivo, 192 h
[21] = species on record: Homo sapiens; experiment: Unbound hepatobiliary clearance in human treated with darifenacin; format: ADME, organism-based; conditions: in vivo
[22] = species on record: Homo sapiens; experiment: Unbound renal clearance in human treated with darifenacin; format: ADME, organism-based, Kidney; conditions: in vivo
[23] = system: Homo sapiens; experiment: Unbound hepatobiliary clearance in healthy human treated with chlorpromazine at 10 mg, iv bolus dose and 25, 50 and 100 mg, po; format: ADME, organism-based; conditions: in vivo
[24] = Fraction unbound in healthy human treated with chlorpromazine at 10 mg, iv bolus dose and 25, 50 and 100 mg, po; format: ADME, organism-based; conditions: in vivo
[25] = system: Homo sapiens; experiment: Unbound renal clearance in healthy human treated with chlorpromazine at 10 mg, iv bolus dose and 25, 50 and 100 mg, po; format: ADME, organism-based, Kidney; conditions: in vivo
[26] = Systemic clearance in healthy human treated with chlorpromazine at 10 mg, iv bolus dose and 25, 50 and 100 mg, po; format: ADME, organism-based; conditions: in vivo
[27] = Fraction unbound in human treated with propranolol; format: ADME, organism-based; conditions: in vivo
[28] = Systemic clearance in human treated with propranolol; format: ADME, organism-based; conditions: in vivo
[29] = species on record: Homo sapiens; experiment: Unbound renal clearance in human treated with propranolol; format: ADME, organism-based, Kidney; conditions: in vivo
[30] = species on record: Homo sapiens; experiment: Unbound hepatobiliary clearance in human treated with propranolol; format: ADME, organism-based; conditions: in vivo

SMILES	pKa [1]	also measured
CN(CCOc1ccc(CC2SC(=O)NC2=O)cc1)c1ccccn1 (stereo not given) [ROSIGLITAZONE]	10.3	
O=C(C1CCCCC1)N1CC(=O)N2CCc3ccccc3C2C1 (stereo not given) [PRAZIQUANTEL]	15	
Cc1ncc2n1-c1ccc(Cl)cc1C(c1ccccc1F)=NC2 [MIDAZOLAM]	13.6	
OCCOCCN1CCN(C2=Nc3ccccc3Sc3ccccc32)CC1 [QUETIAPINE]	11.2	
NC(=O)C(c1ccccc1)(c1ccccc1)[C@@H]1CCN(CCc2ccc3c(c2)CCO3)C1 [DARIFENACIN]	13.5	fraction unbound [2]: 0.02
CN(Cc1cc(Br)cc(Br)c1N)C1CCCCC1 [BROMHEXINE]	15.1	
CCn1cc(C(=O)O)c(=O)c2ccc(C)nc21 [NALIDIXIC ACID]	13	
CN1CCN(c2ccccc2/C=C2\SCCN(c3ccc(Cl)c(Cl)c3)C2=O)CC1 [ELZASONAN]	11.5	
COCc1c(C(C)C)nc(C(C)C)c(/C=C/[C@@H](O)C[C@@H](O)CC(=O)O)c1-c1ccc(F)cc1 [CERIVASTATIN]	14.4	
COc1ccnc(C[S+]([O-])c2nc3ccc(OC(F)F)cc3[nH]2)c1OC (stereo not given) [PANTOPRAZOLE]	7.69	
CC(C)NCC(O)COc1cccc2ccccc12 (stereo not given) [PROPRANOLOL]		fraction unbound [2]: 0.15; clearance [3]: 20 mL/min/kg
Cc1onc(-c2ccccc2)c1-c1ccc(S(N)(=O)=O)cc1 [VALDECOXIB]	13.1	
CC(C)(C)c1ccc(C(O)CCCN2CCC(C(O)(c3ccccc3)c3ccccc3)CC2)cc1 (stereo not given) [TERFENADINE]	15	
COc1ccc2c(c1)[C@]13CCCC[C@@H]1[C@H](C2)N(C)CC3 [DEXTROMETHORPHAN]	10.1	
O=C(NCC1CCCCN1)c1cc(OCC(F)(F)F)ccc1OCC(F)(F)F (stereo not given) [FLECAINIDE]	9.28	
Fc1ccc([C@@H]2CCNC[C@H]2COc2ccc3c(c2)OCO3)cc1 [PAROXETINE]	10.3	
COc1ccc(CCN2CCC(Nc3nc4ccccc4n3Cc3ccc(F)cc3)CC2)cc1 [ASTEMIZOLE]	10.1	
O=C1CC2(CCCC2)CC(=O)N1CCCCN1CCN(c2ncccn2)CC1 [BUSPIRONE]	12.5	clearance [4]: 28 mL/min/kg
O=C(c1ccc(F)cc1)C1CCN(CCn2c(=O)[nH]c3ccccc3c2=O)CC1 [KETANSERIN]	14.1	
CCOc1cc([C@@H](CS(C)(=O)=O)N2C(=O)c3cccc(NC(C)=O)c3C2=O)ccc1OC	9.8	
COc1ccccc1Oc1c(NS(=O)(=O)c2ccc(C(C)(C)C)cc2)nc(-c2ncccn2)nc1OCCO [BOSENTAN]	8.36	

SMILES	pKa [1]	also measured
CC(C)C(=O)Nc1ccc([N+](=O)[O-])c(C(F)(F)F)c1 [FLUTAMIDE]	12.9	CL/F [5]: > 600 mL/min/kg
COc1ccc(-n2nc(C(N)=O)c3c2C(=O)N(c2ccc(N4CCCCC4=O)cc2)CC3)cc1 [APIXABAN]	8.56	
COc1ccc([C@@H]2Sc3ccccc3N(CCN(C)C)C(=O)[C@@H]2OC(C)=O)cc1 [DILTIAZEM]		fraction unbound [6]: 0.25; CL/F [7]: 12 mL/min/kg; CL free [8]: 48 mL/min/kg
CCc1cccc2cc(C(O)CNC(C)(C)C)oc12 (stereo not given) [BUFURALOL]	14.3	
O=C(O[C@@H]1C[C@@H]2C[C@H]3C[C@H](C1)N2CC3=O)c1c[nH]c2ccccc12 [DOLASETRON]	14.6	
Cc1c(O)cccc1C(=O)N[C@@H](CSc1ccccc1)[C@H](O)CN1C[C@H]2CCCC[C@H]2C[C@H]1C(=O)NC(C)(C)C	8.57	
CN(C)CCCN1c2ccccc2Sc2ccc(Cl)cc21 [CHLORPROMAZINE]		clearance [9]: 18.3 mL/min/kg; CL free [10]: 1 mL/min/kg; CL free [11]: 14000 mL/min/kg; Fu [12]: 0.0013
Clc1ccc2c(c1)CCc1cccnc1C2=C1CCNCC1 [DESLORATADINE]	9.27	
CN1C2CCCC1CC(NC(=O)c1nn(C)c3ccccc13)C2 (stereo not given) [GRANISETRON]	8.9	
Clc1ccc2c(c1)N=C(N1CCNCC1)c1ccccc1N2 [N-DESMETHYLCLOZAPINE]		clearance [13]: 0.6 mL/min/kg; fraction unbound [14]: 0.097; CL free [15]: 5 mL/min/kg; CL free [16]: 1.2 mL/min/kg
CNCC[C@@H](Oc1ccccc1C)c1ccccc1 [ATOMOXETINE]	10.3	
C[C@H](NC(=O)C(C)(C)Oc1ccc(C(F)(F)F)cn1)[C@@H](Cc1ccc(Cl)cc1)c1cccc(C#N)c1 [TARANABANT]	15.1	
CCc1nn(CCCN2CCN(c3cccc(Cl)c3)CC2)c(=O)n1CCOc1ccccc1 [NEFAZODONE]	13.8	
O[C@H](CNC[C@@H](O)[C@H]1CCc2cc(F)ccc2O1)[C@@H]1CCc2cc(F)ccc2O1 (relative stereo)	14	
CN1CC(=O)N2[C@H](c3ccc4c(c3)OCO4)c3[nH]c4ccccc4c3C[C@@H]2C1=O	9.87	
N#CC[C@H](C1CCCC1)n1cc(-c2ncnc3[nH]ccc23)cn1 [RUXOLITINIB]	14.9	
CC(NC(C)(C)C)C(=O)c1cccc(Cl)c1 (stereo not given) [BUPROPION]	15.4	
Clc1ccc2c(c1)C(N1CCNCC1)=Nc1ccccc1O2 [AMOXAPINE]	11.2	
CNCCC=C1c2ccccc2CCc2ccccc21 [NORTRIPTYLINE]	13.9	
CCCSc1nc(N[C@@H]2C[C@H]2c2ccc(F)c(F)c2)c2nnn([C@@H]3C[C@H](OCCO)[C@@H](O)[C@H]3O)c2n1 [TICAGRELOR]	14.3	
Cc1c(OCC(F)(F)F)ccnc1C[S+]([O-])c1nc2ccccc2[nH]1 (stereo not given) [LANSOPRAZOLE]	11.2	

SMILES	pKa [1]	also measured
Cc1ccc(-c2cc(C(F)(F)F)nn2-c2ccc(S(N)(=O)=O)cc2)cc1 [CELECOXIB]	14.2	
CNCCN1C(=O)[C@H](OC(C)=O)[C@H](c2ccc(OC)cc2)Sc2ccccc21		CL free [17]: 25 mL/min/kg
CCC(C)n1ncn(-c2ccc(N3CCN(c4ccc(OCC5COC(Cn6cncn6)(c6ccc(Cl)cc6Cl)O5)cc4)CC3)cc2)c1=O (stereo not given) [ITRACONAZOLE]	15	
CNCC[C@H](Oc1cccc2ccccc12)c1cccs1 [DULOXETINE]	9.97	
CCOc1cc(CC(=O)N[C@@H](CC(C)C)c2ccccc2N2CCCCC2)ccc1C(=O)O [REPAGLINIDE]	14.8	
Cc1ccc(O)c([C@H](CCN(C(C)C)C(C)C)c2ccccc2)c1 [TOLTERODINE]	14.7	CL free [18]: 1 mL/min/kg; CL/F [19]: 44 mL/min/kg; CL free [20]: 1190 mL/min/kg
COc1cccc(C2(O)CCCCC2CN(C)C)c1 (racemic) [TRAMADOL]	10	
CC(C)CCC(=O)CC1c2ccccc2C(=O)N1c1ccc2ccc(Cl)nc2n1 (stereo not given) [PAGOCLONE]	15	
NC(=O)C(c1ccccc1)(c1ccccc1)[C@@H]1CCN(CCc2ccc3c(c2)C(O)CO3)C1 (stereo not given in full)		CL free [21]: 60 mL/min/kg; CL free [22]: 47 mL/min/kg
COc1ccc(C(=O)Nc2ccccc2CCC2CCCCN2C)cc1 (stereo not given) [ENCAINIDE]	8.34	
CC(C)(O)c1ccccc1CC[C@@H](SCC1(CC(=O)O)CC1)c1cccc(/C=C/c2ccc3ccc(Cl)cc3n2)c1 [MONTELUKAST]	15.9	
COc1ccccc1OCC(O)CN1CCN(CC(=O)Nc2c(C)cccc2C)CC1 (stereo not given) [RANOLAZINE]	9.59	
C#Cc1cccc(Nc2ncnc3cc(OCCOC)c(OCCOC)cc23)c1 [ERLOTINIB]	13.9	
CN(C)CCCN1c2ccc(O)cc2Sc2ccc(Cl)cc21 [7-HYDROXYCHLORPROMAZINE]		CL free [23]: 400 mL/min/kg; fraction unbound [24]: 0.015; CL free [25]: 6 mL/min/kg; clearance [26]: 6.1 mL/min/kg
CCc1cc2c(cc1CC)CC(NC[C@H](O)c1ccc(O)c3[nH]c(=O)ccc13)C2 [INDACATEROL]	14.6	
COc1ccc2c3c1O[C@H]1[C@@H](O)C=C[C@H]4[C@@H](C2)N(C)CC[C@@]341 [CODEINE]	9.48	
CC(C)NCC(O)COc1ccc(O)c2ccccc12 (stereo not given) [4-HYDROXYPROPRANOLOL SULFATE]		fraction unbound [27]: 0.26; clearance [28]: 66 mL/min/kg; CL free [29]: 5 mL/min/kg; CL free [30]: 248 mL/min/kg
C#C[C@]1(O)CC[C@H]2[C@@H]3[C@H](C)CC4=C(CCC(=O)C4)[C@H]3CC[C@@]21C [TIBOLONE]	15	
CCc1ccc(CCOc2ccc(CC3SC(=O)NC3=O)cc2)nc1 (stereo not given) [PIOGLITAZONE]	13.7	
COc1ccc2[nH]c([S+]([O-])Cc3ncc(C)c(OC)c3C)nc2c1 (stereo not given) [OMEPRAZOLE]	13.2	
O=C1Nc2ccc(Cl)cc2[C@@](C#CC2CC2)(C(F)(F)F)O1 [EFAVIRENZ]	7.18	
